Laboratory results as given in patent US8148424B2, “Tocopherols, tocotrienols, other chroman and side chain derivatives and uses thereof” (Research Development Foundation, priority 1998, dated 2012).
Values after ≈ are worked out from the molar mass of the structure shown. Like-named read-outs stand apart in the source and are kept apart here.

Legend:
A-549 = experiment: Bioassay for apoptosis (apoptotic EC50); type: cell-based, human; conditions: Homo sapiens, A549, unit inferred
Experimental: (§1) Cells were cultured at 1.5×10^5 cells/well in 12 well plates. Cells were allowed to adhere overnight, then incubated with novel test compounds at 0.01, 0.1, 1, 5, 10 & 20 μg/mL for 1, 2 and 3 days. After treatment, cells (floating+trypsin released adherent cells) were pelleted, washed and stained with 2 μg/ml DAPI (4′,6-diamidine-2′-phenylindole dihydrochloride) in 100% methanol for 15 minutes at 37° C. and/or 3′-OH ends resulting from DNA fragmentation were detected with the TUNEL (terminal deoxynucleotidyl transferase-mediated dUTP-X 3′ nick end-labeling) technique, and then viewed using a Zeiss ICM 405 microscope. Cells whose nucleus contained clearly condensed or fragmented chromatin or stained for fragmented DNA in the TUNEL assay were scored as apoptotic. Data are presented as percent cells undergoing apoptosis.

DU-145 = experiment: Bioassay for apoptosis (apoptotic EC50); type: cell-based, human; conditions: Homo sapiens, unit inferred
Experimental: as §1

HL-60 = experiment: Bioassay for apoptosis (apoptotic EC50); type: cell-based, human; conditions: Homo sapiens, HL-60, HL-60; unit inferred
Experimental: as §1

Jurkat = experiment: Bioassay for apoptosis (apoptotic EC50); type: cell-based, human; conditions: Homo sapiens, unit inferred
Experimental: as §1

LnCaP = experiment: Bioassay for apoptosis (apoptotic EC50); type: cell-based, human; conditions: Homo sapiens, unit inferred
Experimental: as §1

MCF-7 = experiment: Bioassay for apoptosis (apoptotic EC50); type: cell-based, human; conditions: Homo sapiens, MCF7, MCF-7; unit inferred
Experimental: as §1

MDA-MB-435 = experiment: Bioassay for apoptosis (apoptotic EC50); type: cell-based, human
Experimental: as §1

ME-180 = experiment: Bioassay for apoptosis (apoptotic EC50); type: cell-based, human; conditions: Homo sapiens, ME-180, ME-180; unit inferred
Experimental: as §1

PC-3 = experiment: Bioassay for apoptosis (apoptotic EC50); type: cell-based, human; conditions: Homo sapiens, PC-3, PC-3; unit inferred
Experimental: as §1

MCF-10A = experiment: Bioassay for apoptosis (apoptotic EC50); type: cell-based; conditions: Homo sapiens, unit inferred
Experimental: as §1

T47D = experiment: Bioassay for apoptosis (apoptotic EC50); type: cell-based; conditions: Homo sapiens, unit inferred
Experimental: as §1

[1] = tested on: human cancer cells from a wide variety of cell lineages; experiment: Apoptosis induction in a battery of tumor cells; type: cell-based; conditions: breast, prostate, leukemia/lymphoid, cervical, ovarian, endometrial, colon, lung cell lines
Experimental: as §1

HT-29 = experiment: Bioassay for apoptosis (apoptotic EC50); type: cell-based, human; conditions: Homo sapiens, unit inferred
Experimental: as §1

DLD-1 = experiment: Bioassay for apoptosis (apoptotic EC50); type: cell-based, human; conditions: Homo sapiens, unit inferred
Experimental: as §1

C-170 = experiment: Bioassay for apoptosis (apoptotic EC50); type: cell-based, human; conditions: Homo sapiens, C170, C-170; unit inferred
Experimental: as §1

RL-95-2 = experiment: Bioassay for apoptosis (apoptotic EC50); type: cell-based, human; conditions: Homo sapiens, RL95-2, RL-95-2; unit inferred
Experimental: as §1

[2] = tested on: breast tumor cell line MDA-MB-435; experiment: Bioassay for DNA synthesis arrest, naturally occurring vitamin E compounds; type: cell-based, human; conditions: Table 1
Experimental: Table 1 provides tumor growth inhibitory properties of naturally occurring vitamin E compounds against the breast tumor cell line MDA-MB-435.
To assay DNA synthesis, all cells were used at 2.5×10^5/ml. Cells were treated with each of the compounds at concentrations of 0.01, 0.1, 1, 5, 10 and 20 μg/mL and 200 μl of each treatment group were plated in quadruplicate in a 96 well culture plate (Corning, Corning N.Y.). Experiments were done in duplicate, one plate used for viability testing and the other plate for examination of ^3H-TdR uptake to monitor DNA synthesis. Plates were cultured for 48 hours at 37° C., 5% CO2. Eight hours prior to the end of incubation, ^3H-TdR was added to one of the duplicate plates and incubation continued for 8 hours.
The cells were then harvested (trypsinization was required to harvest adherent cells), and isotope uptake was determined as counts per minute (cpm). For viability studies, at the end of the incubation, the cells were removed from the wells and viability checked by the Trypan Blue Exclusion method. Percent viability and percent DNA synthesis in comparison to untreated or vehicle treated cells of each treatment group were calculated.

[3] = Homo sapiens, MDA-MB-435, MDA-MB-435, unit inferred, read-out: apoptotic EC50
[4] = MDA-MB-435, Table 1, read-out: EC50 for Apoptosis

Row | Compound | EC50 (A-549) [mg/L] | EC50 (DU-145) [mg/L] | EC50 (HL-60) [mg/L] | EC50 (Jurkat) [mg/L] | EC50 (LnCaP) [mg/L] | EC50 (MCF-7) [mg/L] | EC50 (MDA-MB-435; [3]) [mg/L] | EC50 (ME-180) [mg/L] | EC50 (PC-3) [mg/L] | EC50 (MCF-10A) [mg/L] | EC50 (T47D) [mg/L] | growth inhibitory (apoptotic inducing) properties specific for human cancer cells [1] | EC50 (HT-29) [mg/L] | EC50 (DLD-1) [mg/L] | EC50 (C-170) [mg/L] | EC50 (RL-95-2) [mg/L] | EC50 (MDA-MB-435; [4]) [µM] | EC50 [2] [µM]
1 | Cc1c(C)c2c(c(C)c1OCC(=O)O)C=C[C@@](C)(CCC[C@H](C)CCC[C@H](C)CCCC(C)C)O2 [Compound 20, 2,5,7,8-tetramethyl-(2R-(4R,8R,12-trimethyltridecyl)chroman-3-ene-6-yloxy)acetic acid] | 20 to 30 (≈ 41.1 to 61.6 µM) | 5 to 10 (≈ 10.3 to 20.5 µM) | 10 (≈ 20.5 µM) | 10 to 20 (≈ 20.5 to 41.1 µM) | 5 to 10 (≈ 10.3 to 20.5 µM) | 5 to 10 (≈ 10.3 to 20.5 µM) | 10 to 20 | 1 to 5 (≈ 2.05 to 10.3 µM) | 5 to 10 (≈ 10.3 to 20.5 µM) | > 20 | 5 to 10 (≈ 10.3 to 20.5 µM) | effective | – | – | – | – | – | –
2 | CCCCCCC[C@]1(C)CCc2c(C)c(OCC(=O)O)c(C)c(C)c2O1 [Compound 23, 2,5,7,8-tetramethyl-(2R-(heptyl)chroman-6-yloxy)acetic acid] | – | > 20 | – | – | – | > 20 | > 20 | – | > 20 | > 20 | – | – | > 20 | – | – | – | – | –
3 | CCCCCCCCCCCCC[C@]1(C)CCc2c(C)c(OCC(=O)O)c(C)c(C)c2O1 [Compound 24, 2,5,7,8-tetramethyl-(2R-(tridecyl)chroman-6-yloxy)acetic acid] | – | > 20 | – | – | > 20 | > 20 | > 20 | – | > 20 | – | – | – | – | > 20 | – | – | – | –
4 | CCCCCCCCCCCCCCCCC[C@]1(C)CCc2c(C)c(OCC(=O)O)c(C)c(C)c2O1 [Compound 25, 2,5,7,8-tetramethyl-(2R-(heptadecyl)chroman-6-yloxy)acetic acid] | – | 20 to 30 (≈ 39.8 to 59.7 µM) | – | – | > 20 | > 20 | > 20 | > 20 | 20 to 30 (≈ 39.8 to 59.7 µM) | > 20 | – | effective | > 20 | > 20 | > 20 | > 20 | – | –
5 | CC(C)=CCC/C(C)=C\C=C/[C@]1(C)CCc2c(C)c(OCC(=O)O)c(C)c(C)c2O1 [Compound 26] | > 20 | > 20 | > 20 | 20 to 30 (≈ 48.5 to 72.7 µM) | 10 to 20 (≈ 24.2 to 48.5 µM) | > 20 | 20 to 40 | – | > 20 | > 20 | > 20 | effective | > 20 | 20 to 40 (≈ 48.5 to 97 µM) | 20 to 30 (≈ 48.5 to 72.7 µM) | 20 to 30 (≈ 48.5 to 72.7 µM) | – | –
6 | Cc1c(O)cc2c(c1C)O[C@](C)(CCC[C@H](C)CCC[C@H](C)CCCC(C)C)CC2 [γ-tocopherol, reference compound] | – | – | – | – | – | – | – | – | – | – | – | – | – | – | – | – | 300 | > 400
7 | CC(C)=CCC/C(C)=C/CC/C(C)=C/CC[C@]1(C)CCc2cc(O)c(C)c(C)c2O1 [γ-tocotrienol, reference compound] | – | – | – | – | – | – | – | – | – | – | – | – | – | – | – | – | 10 | 10
8 | Cc1cc(O)cc2c1O[C@](C)(CCC[C@H](C)CCC[C@H](C)CCCC(C)C)CC2 [δ-tocopherol, reference compound] | – | – | – | – | – | – | – | – | – | – | – | – | – | – | – | – | 100 | 150
9 | CC(C)=CCC/C(C)=C/CC/C(C)=C/CC[C@]1(C)CCc2cc(O)cc(C)c2O1 [δ-tocotrienol, reference compound] | – | – | – | – | – | – | – | – | – | – | – | – | – | – | – | – | 5 | 5
